Measured values as given in patent US20230133657A1, “THE USE OF MENTHOL FOR THE PREPARATION OF A TOPICAL COMPOSITION TO IMPROVE NEURODEGENERATIVE DISEASE AND STROKE” (CHINA MEDICAL UNIVERSITY, priority 2020, published 2023).

What was measured:
[1] = tested on: Parkinson's disease mice (MPTP); assay: Immunohistochemical (IHC) staining of TH in substantia nigra; format: in vivo, mouse; conditions: forepaws soaked in 8% menthol
Source text: Laboratory mice are divided into three groups: “Control” consisting of normal mice; “MPTP” consisting of Parkinson's disease mice fed with MPTP for creation of a disease model; “MPTP+8% ME” consisting of Parkinson's disease mice which are fed with MPTP for creation of a disease model and whose forepaws are soaked in 8% menthol. For administration of menthol, two forepaws of each “MPTP+8% ME” mouse are soaked in 8% (wt %) menthol solution for 10 seconds per day from Day 1 to Day 5 and from Day 8 to Day 10, respectively. For creation of a Parkinson's disease mouse model, MPTP (daily dosage: 10 mg/kg) is injected into “MPTP” and “MPTP+8% ME” mice through the intraperitoneal (I.P.) injection on three consecutive days from Day 3 to Day 5. By Day 10, the endurance exercise test, the dopamine assay and the immunohistochemical staining are conducted for any improvement in the symptom of Parkinson's disease due to menthol. The level of TH in a mouse's substantia nigra is tested through IHC staining (FIG. 1D). […] A mouse's nerve cells containing TH for generation of dopamine could be damaged due to Parkinson's disease.

[2] = tested on: ischemic stroke mice (MCAO); assay: Rotarod test, ischemic stroke mouse model; format: in vivo
Source text: Laboratory mice are divided into four groups: “Control” consisting of mice processed through MCAO for the ischemic stroke; “Water” consisting of mice which are processed for the ischemic stroke through MCAO and whose limbs are soaked in water; “MCAO+8% ME” consisting of mice which are processed for the ischemic stroke through MCAO and whose limbs are soaked in 8% menthol; “MCAO+16% ME” consisting of mice which are processed for the ischemic stroke through MCAO and whose limbs are soaked in 16% menthol. In Embodiment 2, menthol is prepared with 95% ethanol. Referring to the experiment schedule in FIG. 2A, mice are sacrificed on Day 7 for following analyses. Mice are processed for the ischemic stroke through MCAO on Day 0 and administrated with menthol once per day from Day 0 to Day 6. On the day of processing mice through MCAO, the limbs of a mouse resting 20 minutes after the operation are soaked in menthol for one minute; a mouse's limbs are soaked in menthol for 15 seconds only from Day 2 to Day 6; comparatively, a Water mouse's limbs are soaked in water. The sensorimotor nerve function test is conducted for mice one day before MCAO processing (i.e., pre-MCAO) and 1, 3 and 6 days after MCAO processing; the cerebral infarction volume is measured for checking any improvement in the stroke due to menthol on Day 7 after MCAO processing. In the rotarod test, a mouse is placed on a self-accelerated rotating rod (rotation rate from 4 to 40 rpm) on Day 3 and Day 6 for measuring the retention time (FIG. 2B-1 and FIG. 2B-2) and comparing test results with those of “pre-MCAO”. Mice in each group are tested three times. The test results are analyzed with the one-way ANOVA for further reviews through the multiple comparison analysis (Dunnett's method) and statistics of between-group variances (*p<0.05). The asterisk (*) means a significant difference between “Control” and “Water” or “MCAO+8% ME” (*p<0.05; **p<0.01). […] As shown in FIGS. 4B-1 and 4B-2, the test results are analyzed with the one-way ANOVA for further reviews through the multiple comparison analysis (Duncan's method) and statistics of between-group variances (*p<0.05; *: comparison with the “Water” group; comparison with the “16% ME” group; comparison with the “8% ME” group). […]

[3] = tested on: ischemic stroke mice (MCAO); assay: Measurement of the cerebral infarction volume (TTC staining); format: in vivo, mouse
Source text: Laboratory mice are divided into four groups: “Control” consisting of mice processed through MCAO for the ischemic stroke; “Water” consisting of mice which are processed for the ischemic stroke through MCAO and whose limbs are soaked in water; “MCAO+8% ME” consisting of mice which are processed for the ischemic stroke through MCAO and whose limbs are soaked in 8% menthol; “MCAO+16% ME” consisting of mice which are processed for the ischemic stroke through MCAO and whose limbs are soaked in 16% menthol. In Embodiment 2, menthol is prepared with 95% ethanol. Referring to the experiment schedule in FIG. 2A, mice are sacrificed on Day 7 for following analyses. Mice are processed for the ischemic stroke through MCAO on Day 0 and administrated with menthol once per day from Day 0 to Day 6. On the day of processing mice through MCAO, the limbs of a mouse resting 20 minutes after the operation are soaked in menthol for one minute; a mouse's limbs are soaked in menthol for 15 seconds only from Day 2 to Day 6; comparatively, a Water mouse's limbs are soaked in water. The sensorimotor nerve function test is conducted for mice one day before MCAO processing (i.e., pre-MCAO) and 1, 3 and 6 days after MCAO processing; the cerebral infarction volume is measured for checking any improvement in the stroke due to menthol on Day 7 after MCAO processing. After a mouse in each group is sacrificed through perfusion one week after MCAO processing, a specimen of the mouse's living brain is stained by TTC (FIG. 2D-2) for measurement of the cerebral infarction volume (mm^3) (FIG. 2D-1). The test results for the cerebral infarction volume are analyzed with the one-way ANOVA for further reviews through the multiple comparison analysis (Tukey's method) and statistics of between-group variances (*p<0.05). […] Laboratory mice are divided into five groups: “Water” consisting of mice which are processed for the ischemic stroke through MCAO and whose limbs are soaked in water; “8% ME” consisting of mice which are processed for the ischemic stroke through MCAO and whose limbs are soaked in 8% menthol; “16% ME” consisting of mice which are processed for the ischemic stroke through MCAO and whose limbs are soaked in 16% menthol; “Back-ME” consisting of mice which are processed for the ischemic stroke through MCAO and whose backs are soaked in menthol; “Oral-ME” consisting of mice which are processed for the ischemic stroke through MCAO and fed with menthol. […] As shown in FIGS. 4B-1 and 4B-2, the test results are analyzed with the one-way ANOVA for further reviews through the multiple comparison analysis (Duncan's method) and statistics of between-group variances (*p<0.05; *: comparison with the “Water” group; comparison with the “16% ME” group; comparison with the “8% ME” group). […]

[4] = tested on: Parkinson's disease mice (MPTP); assay: Rotarod test (endurance exercise test), Parkinson's disease mouse model; format: in vivo; conditions: forepaws soaked in 8% (wt %) menthol solution 10 seconds per day
Source text: Laboratory mice are divided into three groups: “Control” consisting of normal mice; “MPTP” consisting of Parkinson's disease mice fed with MPTP for creation of a disease model; “MPTP+8% ME” consisting of Parkinson's disease mice which are fed with MPTP for creation of a disease model and whose forepaws are soaked in 8% menthol. For administration of menthol, two forepaws of each “MPTP+8% ME” mouse are soaked in 8% (wt %) menthol solution for 10 seconds per day from Day 1 to Day 5 and from Day 8 to Day 10, respectively. For creation of a Parkinson's disease mouse model, MPTP (daily dosage: 10 mg/kg) is injected into “MPTP” and “MPTP+8% ME” mice through the intraperitoneal (I.P.) injection on three consecutive days from Day 3 to Day 5. By Day 10, the endurance exercise test, the dopamine assay and the immunohistochemical staining are conducted for any improvement in the symptom of Parkinson's disease due to menthol. The rotarod test is a performance test in which a rodent keeps running on a self-accelerated rotating rod activated from 4 rpm (initial rotation rate) to 40 rpm (maximum and constant rotation rate in five minutes) on Day 1 (Day 10) for estimation of the retention time of the rodent on the rotating rod (FIG. 1B). As shown in the ordinate of FIG. 1B, “A latency to fall” denotes the difference between the retention time on Day 10 and the retention time on Day 1.

[5] = tested on: ischemic stroke mice (MCAO); assay: Adhesive removal test, ischemic stroke mouse model; format: in vivo
Source text: Laboratory mice are divided into four groups: “Control” consisting of mice processed through MCAO for the ischemic stroke; “Water” consisting of mice which are processed for the ischemic stroke through MCAO and whose limbs are soaked in water; “MCAO+8% ME” consisting of mice which are processed for the ischemic stroke through MCAO and whose limbs are soaked in 8% menthol; “MCAO+16% ME” consisting of mice which are processed for the ischemic stroke through MCAO and whose limbs are soaked in 16% menthol. In Embodiment 2, menthol is prepared with 95% ethanol. Referring to the experiment schedule in FIG. 2A, mice are sacrificed on Day 7 for following analyses. Mice are processed for the ischemic stroke through MCAO on Day 0 and administrated with menthol once per day from Day 0 to Day 6. On the day of processing mice through MCAO, the limbs of a mouse resting 20 minutes after the operation are soaked in menthol for one minute; a mouse's limbs are soaked in menthol for 15 seconds only from Day 2 to Day 6; comparatively, a Water mouse's limbs are soaked in water. The sensorimotor nerve function test is conducted for mice one day before MCAO processing (i.e., pre-MCAO) and 1, 3 and 6 days after MCAO processing; the cerebral infarction volume is measured for checking any improvement in the stroke due to menthol on Day 7 after MCAO processing. The adhesive removal test is conducted on Day 1, 3 and 6 and the test results are compared with status at “pre-MCAO”. As shown in the experimental process, the time of a mouse finding and removing 4 (mm)×4 (mm) stickers, which have been adhered to its forepaws outside a test cage, is recorded (FIG. 2C-1, FIG. 2C-2) for statistic analysis as described in Section 2.1 (*p<0.05; **p<0.01; ***p<0.001). […] As shown in FIGS. 4B-1 and 4B-2, the test results are analyzed with the one-way ANOVA for further reviews through the multiple comparison analysis (Duncan's method) and statistics of between-group variances (*p<0.05; *: comparison with the “Water” group; comparison with the “16% ME” group; comparison with the “8% ME” group). […]

[6] = MCAO mice fed with oral menthol (Oral-ME)
[7] = MCAO mice, limbs soaked in menthol (8% ME, 16% ME), topical vs oral comparison

CC1CCC(C(C)C)C(O)C1 (stereo not shown) [menthol]
level of TH in substantia nigra [1]: recovered and similar to that of Control mice | retention time on a rotating rod [2, 6]: not extended effectively | retention time on a rotating rod ([2]; MCAO mice, backs administered with topical menthol (Back-ME)): not extended effectively | retention time on a rotating rod ([2]; MCAO mice, limbs soaked in 8% or 16% menthol once per day Day 0 to Day 6, Day 3 and Day 6): longer than the retention time performed by MCAO or Water mice | retention time on a rotating rod [2, 7]: longer than the retention time performed by Back-ME, Water or Oral-ME mice | cerebral infarction volume [3, 6]: unchanged | cerebral infarction volume ([3]; MCAO mice, backs administered with menthol (Back-ME)): unchanged | cerebral infarction volume ([3]; MCAO mice, limbs soaked in 8% or 16% menthol, Day 7, TTC staining, vs Control and Water groups): significantly decreases | cerebral infarction volume [3, 7]: significantly subdued | retention time on a rotating rod (latency to fall, Day 10 vs Day 1) [4]: longer than the retention time on Day 1 | time spent in removing stickers ([5]; limbs soaked in 8% or 16% menthol, Day 1, 3 and 6): significantly shorter than time spent by Control or Water mice | time spent in finding stickers ([5]; limbs soaked in 8% or 16% menthol, Day 6, vs Water mice): significantly less time | time spent in finding and removing stickers ([5]; limbs soaked in menthol (8% ME, 16% ME), vs Water, Back-ME, Oral-ME): significantly shorter than other mice
